Data published in ChEMBL document CHEMBL1157253, “ent-rosane and labdane diterpenoids from Sagittaria sagittifolia and their antibacterial activity against three oral pathogens” (2006).
≈ marks a conversion by molar mass, not a printed value. Calls of active or inactive are those of the source. The calls are words filed in the database; no cut-off is given here.

Assays:
Assay type in all cases: functional
[1] = system: Aggregatibacter actinomycetemcomitans; test: Antibacterial activity against Actinobacillus actinomycetemcommitans ATCC 43717 after 1 to 2 days under anaerobic condition by serial dilution method
[2] = system: Actinomyces naeslundii; test: Antibacterial activity against Actinomyces naeslundii ATCC 12104 after 1 to 2 days under anaerobic condition by serial dilution method
[3] = system: Streptococcus mutans; test: Antibacterial activity against Streptococcus mutans ATCC 25175 after 1 to 2 days under anaerobic condition by serial dilution method

| SMILES | MIC [1] [µg/mL] | MIC [2] [µg/mL] | MIC [3] [µg/mL] | Activity [1] |
| --- | --- | --- | --- | --- |
| C=C[C@@]1(C)CC[C@@]2(C)[C@@H](CC=C3[C@@H]2CCC[C@]3(C)CO[C@@H]2O[C@@H](COC(C)=O)[C@H](OC(C)=O)[C@H]2O)C1 | – | – | – | inactive |
| C=C[C@@]1(C)CC[C@@]2(C)[C@@H](CC[C@]3(O)[C@@H]2CCC[C@]3(C)C(=O)O)C1 | – | – | – | inactive |
| C=C[C@@]1(C)CC[C@@]2(C)[C@@H](CC=C3[C@@H]2CCC[C@]3(C)C(=O)O)C1 [SAGITTINE A] | > 250 | 62.5 (≈ 207 µM) | 62.5 (≈ 207 µM) | – |
| C=C[C@@]1(C)CC[C@@]2(C)[C@@H](CC=C3[C@@H]2CCC[C@]3(C)CO[C@@H]2O[C@@H](COC(C)=O)[C@H](O)[C@H]2OC(C)=O)C1 [SAGITTINE E] | > 250 | 62.5 (≈ 124 µM) | > 250 | – |

Now from value to molecule, other results behind:

| MIC [1] [µg/mL] | MIC [2] [µg/mL] | MIC [3] [µg/mL] | SMILES | Activity [1] |
| --- | --- | --- | --- | --- |
| 250 (≈ 594 µM) | 125 (≈ 297 µM) | 62.5 (≈ 149 µM) | C=C[C@@]1(C)CC[C@@]2(C)[C@@H](CC=C3[C@@H]2CCC[C@]3(C)CO[C@@H]2O[C@@H](CO)[C@H](O)[C@H]2O)C1 [SAGITTINE B] | – |
| 250 (≈ 540 µM) | 62.5 (≈ 135 µM) | 62.5 (≈ 135 µM) | C=C[C@@]1(C)CC[C@@]2(C)[C@@H](CC=C3[C@@H]2CCC[C@]3(C)CO[C@@H]2O[C@@H](COC(C)=O)[C@H](O)[C@H]2O)C1 [SAGITTINE C] | – |
| 250 (≈ 540 µM) | 125 (≈ 270 µM) | 125 (≈ 270 µM) | C=C[C@@]1(C)CC[C@@]2(C)[C@@H](CC=C3[C@@H]2CCC[C@]3(C)CO[C@@H]2O[C@@H](CO)[C@H](O)[C@H]2OC(C)=O)C1 [SAGITTINE D] | – |
